Patent US6528049B2, “Bisexual attractants, aggregants and arrestants for adults and larvae of codling moth and other species of lepidoptera” (Trece, Inc., priority 1999, dated 2003)
Where “and” joins values, the source holds several entries; their conditions need not be identical. Identical values can stand only once.

Experiments:
Assay type in all cases: in vivo, Cydia pomonella
codling moth [1] = experiment: Field study of individual alcohols, aldehydes and esters; settings: individual compounds typically of purity 90-98%
Text: Attractive activity of these compounds for male and female codling moth was compared to purified ethyl (2E,4Z)-2,4-decadienoate.
When the cumulative evaluation of all studied compounds and/or blends containing aldehyde, alcohol, ester and terpene compounds was made, the following results clearly confirmed the findings seen in Table 3.

codling moth [2] = experiment: Inherent attractancy field test of HPV blends in baited sticky traps in walnut orchard
Method: The blends listed in Table 2 were then field tested in walnut orchards for their attractancy to male and female codling moths, and also for enhancement with synthetic codling moth pheromone and other additives identified above. Their total capture (both males and females), and their individual male and female capture were determined and results obtained, were compared to insect capture obtained with purified individual ester, compound #25 namely ethyl (2E,4Z)-2,4-decadienoate, and to the codling moth male sex pheromone compound #26 in Table 3.
Individual blends containing representative aldehyde, alcohol, ester, monoterpene or sesquiterpene blends were provided in the traps in 10 mg/white septa.
Individual host-plant volatile (HPV) blends identified by the #1-23 in Table 3 were tested for codling moth attractancy in a walnut orchard, and the results were compared to the isolated purified ethyl (2E,4Z)-2,4-decadienoate (#25), to pheromone (#26) and to solvent controls (#24).
Twenty-five HPV blends and eight individual compounds were field tested. One synthetic blend, “ester blend #10,” elicited excellent codling moth attraction. In field tests, the other tested blends (see Table 3) and compounds captured no moths over a three month period, except for an “apple-skin surface extract” (Golden Delicious, ether solvent) (Σ=3 codling moth captured, 1♂: 2♀♀) and the individual compound, (E,E)-α-farnesene (Σ=1♂ codling moth captured). The field tests are presented in Table 3 and show attraction specificity for HPV ester blend #10.
(§1) Sticky traps (ICP and IIB traps, Trécé, Inc. Salinas, Calif.) were baited with either extracts, blends of HPVs, or individual HPVs (>95% purity) that evaporated from impregnated rubber septa. HPV blends, or individual HPV compounds, were diluted in hexane and pipetted onto rubber septa at approximate doses of 10 mg/septum. A single treatment septum was placed in each sticky wing-trap, and hung approximately six meters high in the outer walnut canopy. Trap liners and treatment HPV septa were replaced every 10-14 days and pheromone septa every month and tests were conducted throughout two summers.
(§2) A replicated series of different HPV treatment traps, control “blank” (unbaited) trap, and a commercial pheromone-baited trap (Trécé, Inc.) were distributed 5 trees apart throughout two distant Hartley walnut orchards and validated in 12 walnut orchards. The orchards were distinct, with one using three summer insecticide sprays and the other had no spraying. Thus, these test orchards had low vs. moderate relative populations of codling moths. Significant effects on the gender of codling moths captured were judged by paired tests, either T-test or a nonparametric test.

codling moth [3] = experiment: Trap capture with purified (2E,4E) and (2E,4Z) 2,4-decadienoic acid esters; settings: 1 mg dose/gray septum; four orchards; means of 21 trap checks
Method: In this study, test compounds were highly purified synthetic samples. The purities of the compounds are expressed as percentages. Individual traps were baited with 1 mg dose/gray septum; five replicate blocks in four orchards; means of 21 total trap checks.

codling moth [4] = experiment: Trap capture with proportional mixes of ethyl 2,4-decadienoate isomers; settings: 1 mg dose/gray septum
Method: Additionally, studies were performed to determine the attraction of codling moth to proportional mixes of (2E,4Z) and (2E,4E) isomers of ethyl 2,4-decadienoate and highly purified samples of each. Traps were baited with 1 mg dose/gray septum.

codling moth [5] = experiment: Rapid-kill liquid traps baited with ester blend #10 or pheromone
Method: Experimental challenge to this question was to use a novel, funnel-liquid-jar-trap (“rapid-kill liquid traps”) to rapidly kill (drown) attracted moths. […] Again, it was the females who were predominantly captured (sex ratio: 1♂:3.0♀♀ insect attracted).
Again, females were preferentially attracted (3:1 ratio) to ester blend #10 rapid kill liquid traps, while only males were seen to be attracted to the pheromone traps.
A second series of inherent attractancy tests were conducted on the most-active HPV blend (ester blend #10) using a novel, funnel-liquid (50:50 water and antifreeze) jar-trap adapted from a prototype of Trece, Inc., to rapidly kill (drown) attracted moths (“rapid-kill liquid traps”). This study comprised of a pheromone standard trap, a control blank trap and seven replicated HPV ester blend #10-baited traps. The rapid-kill traps were hung six meters high on trees distributed five rows apart in a Hartley walnut orchard with a moderate codling moth population. HPV ester blend #10 was loaded on a rubber septa at approximate doses of 10 mg/septum and were replaced every 10 days, while the commercial pheromone septum was replaced monthly.

codling moth [6] = experiment: Paired-trap test of pheromone alone vs pheromone + ester blend #10; settings: for Total Moths Caught: / Mean ± SEM capture of codling moths: Table 11; for Mean ± SEM capture of codling moths: paired traps, Hartley walnut orchard
Text: The ability of the HPV ester blend #10 to influence the pheromone attractancy/preference of codling moth was resolved using paired-traps, one trap with a pheromone septum alone and the other trap with a pheromone septum and an ester blend #10 septum. […] Results are seen in Tables 10 and 11, and FIG. 3.
Table 10 illustrates interaction of pheromone with HPV ester blend #10 on codling moth attraction, when tested in a conventional low-population Hartley walnut orchard. There were 13 traps and 18 trap check dates.
(§3) Pheromone traps (sticky wing traps, Trécé, Inc.,) were hung as pairs: a pheromone only baited-trap vs. a pheromone+HPV blend-baited trap. The two traps of a test pair were attached in close competitive proximity (120 cm apart) on a common hanger bar (PVC pipe). The paired-trap bars were hung 5-6 meters high on the outer canopies of trees. A single pair-trap was hung per tree and different replicate test trees were separated by five rows in a matrix through the orchard. Each pheromone trap was baited with ½ of a commercial pheromone-impregnated rubber septum (Trécé, Inc.). Septa were sectioned by a razor blade. The HPV blends evaporated from their own separate impregnated rubber septa containing 10 mg diluted in hexane/septum).
(§4) Tests were conducted in a Harley English walnut orchard. Tests spanned the entire two year seasons April-October with traps checked, males sexed, counted and removed every 2-7 days. Significant effect on pheromone trap capture were judged by paired tests either T-test or a nonparametric test.

codling moth [7] = experiment: Septa colour and loading dose trap study; settings: Ph-L2 pheromone
Method: Since there have been differences observed between traps containing gray, white or red septa, a study was performed to determine the significance of the specific septa and their effect on the increase or decrease of attractancy. […]

codling moth [8] = experiment: Ester blend #10-baited vs pheromone-baited sticky traps; settings: Table 13; baited sticky trap
Text: Attraction of female and male codling moths to ester blend #10 in baited sticky trap is seen in FIG. 1. […] Results are numerically expressed in Table 13.
Table 13 compares two orchard treatments with ester blend #10 and pheromone-only baited sticky traps. […] In the pheromone baited traps, only male insects were captured.
The female flight pattern depicted by capture in ester blend #10-baited sticky traps was related to the male flight pattern to pheromone-baited traps over the 3 month test period. Results are seen in FIG. 2, which is a comparative graph of codling moth flight patterns delineated by males captured in pheromone traps versus both sexes captured in ester blend #10 traps. […] The male pheromone curve rises sooner and lasts longer per flight, while the female ester blend #10 curve drops off sooner. These temporal-phase shifts of the flight curves represent the earlier and longer emergence of male codling moth for each flight period.
as §1, §2

male codling moth = experiment: Pheromone preference paired-trap test: pheromone alone vs pheromone + HPV; settings: Table 8, trap paired with the HPV of the same table line
Text: Interaction of synthetic apple and pear odor blends, described above in Table 2, and their effect on the attractancy of synthetic pheromone to codling moth was also studied. For that purpose, series of paired-traps containing pheromone alone or pheromone in combination with synthetic host plant volatile blends were placed in walnut orchards.
Interaction of individual synthetic host plant volatiles or blends on the attractiveness of synthetic male pheromone to male codling moth administered in paired traps with pheromone alone or with pheromone and attractant 10 mg/red septum was also studied.
as §3, §4

codling moth [9] = experiment: Sticky traps baited with the single compound or pheromone; settings: Table 15, sticky trap
Text: FIG. 5 illustrates mean attraction of female and male codling moths to sticky traps baited with a single host plant volatile, ethyl (2E,4Z)-2,4-decadienoate. The attraction was followed over a two month period.

[10] = walnut orchard, blends 10 mg/white septa, ethyl (2E,4Z)-2,4-decadienoate 5 mg
[11] = Gray Septa, High (high population conventional orchard)
[12] = Gray Septa, Low (low population organic orchard)
[13] = Red Septa, High (high population conventional orchard)
[14] = Red Septa, Low (low population organic orchard)
[15] = 3 traps, 43 trap checks (pheromone: 1 trap, 19 trap checks)

CCCCCC=CC=CCO [(2,4)-2,4-decadien-1-ol]
attractancy to male and female codling moth (in words) (codling moth [1]): very low male attractancy

CCCCCCC/C=C/COC(C)=O [(E)-2-decen-1-yl acetate]
attractancy to male and female codling moth (in words) (codling moth [1]): most active

C=C/C(C)=C/C/C=C(\C)CCC=C(C)C [(E,E)-α-farnesene]
Σ codling moth captured (codling moth [2]; field tests over a three month period): 1

CCCCC/C=C/C=C/C(=O)OCC [Ethyl (2E,4E)-2,4-Decadienoate]
MALE CM Captured: ♂♂/trap/night ± SEM (codling moth [3]): 0.24 ± 0.06 ♂♂/trap/night
Total CM Captured: CM/trap/night ± SEM (codling moth [3]): 0.77 ± 0.20 CM/trap/night
Female CM Captured ♀♀/trap/night ± SEM (codling moth [4]): 0.05 ± 0.05 ♀♀/trap/night
MALE CM Captured: ♂♂/trap/night ± SEM (codling moth [4]): 0.19 ± 0.05 ♂♂/trap/night
Total CM Captured: CM/trap ± SEM (codling moth [4]): 0.24 ± 0.10 CM/trap

CCCCC/C=C\C=C\C(=O)OC [Methyl (2E,4Z)-2,4-Decadienoate]
attractancy to male and female codling moth (in words) (codling moth [1]): most active
FEMALE CM Captured: ♂♂/trap/night ± SEM (codling moth [3]): 0.41 ± 0.14 ♀♀/trap/night
MALE CM Captured: ♂♂/trap/night ± SEM (codling moth [3]): 0.12 ± 0.07 ♂♂/trap/night
Total CM Captured: CM/trap/night ± SEM (codling moth [3]): 0.54 ± 0.19 CM/trap/night

C/C=C/C=C/CCCCCCCO [Pheromone, (E,E)-8,10-dodecadienol, reference compound]
Female Capture: Sum: (codling moth [5]; Table 14): 0 Moths/Trap/Night
Male Capture: Sum: (codling moth [5]; Table 14): 18.3 Moths/Trap/Night
Female Capture: Mean ± SEM (codling moth [5]; Table 14, one month): 0 Moths/Trap/Night
Male Capture: Mean ± SEM (codling moth [5]; Table 14, one month): 3.04 ± 0.08 Moths/Trap/Night
FEMALE CM Captured with HPV; ♀♀/trap night ± SEM (codling moth [2]; [10]): 0.0 ♀♀/trap night
MALE CM Captured with HPV; ♂♂/trap/night ± SEM (codling moth [2]; [10]): 3.15 ± 0.98 ♂♂/trap/night
Total CM Captured with HPV: (CM/trap/night ± SEM) (codling moth [2]; [10]): 3.15 ± 0.98 CM/trap/night
Total Moths Caught: Male (codling moth [6]; Table 10, conventional low-population Hartley walnut orchard): 46
Male capture, Mean ± SEM (codling moth [6]; Table 10, conventional low-population Hartley walnut orchard, 13 traps, 18 trap check dates): 0.55 Moths/Night
Total Moths Caught: (codling moth [6]; Test 1): 212
Mean ± SEM capture of codling moths (codling moth [6]; Test 1 (2 Reps)): 0.74 ± 0.13 Moths/Trap/Night
Total Moths Caught: (codling moth [6]; Test 2): 745
Mean ± SEM capture of codling moths (codling moth [6]; Test 2 (2 Reps, 50 trap checks)): 2.54 ± 0.43 Moths/Trap/Night
♂♂ ± SEM (Ph-L2 pheromone) (codling moth [7]; [11]): 0.08 ± 0.05
♂♂ ± SEM (under Ph-L2 pheromone) (codling moth [7]; [11]): 0.05 ± 0.05
♂♂ ± SEM (Ph-L2 pheromone) (codling moth [7]; [12]): 0
♂♂ ± SEM (under Ph-L2 pheromone) (codling moth [7]; [12]): 1.28 ± 0.61
♂♂ ± SEM (Ph-L2 pheromone) (codling moth [7]; [13]): 0.06 ± 0.06
♂♂ ± SEM (under Ph-L2 pheromone) (codling moth [7]; [13]): 9.98 ± 2.94
♂♂ ± SEM (Ph-L2 pheromone) (codling moth [7]; [14]): 0
♂♂ ± SEM (under Ph-L2 pheromone) (codling moth [7]; [14]): 0.80 ± 0.31
Female Capture: Mean ± SEM (codling moth [8]): 0 Moths/Trap/Night
Female Capture: Sum: (codling moth [8]): 0 Moths/Trap/Night
Male Capture: Mean ± SEM (codling moth [8]): 4.96 ± 1.04 Moths/Trap/Night
Male Capture: Sum: (codling moth [8]): 94.3 Moths/Trap/Night
Male CM Captured, Pheromone Alone Trap: ± SEM (male codling moth; Orchard #1): 0.73 ± 0.15 ♂♂/trap/night and 1.09 ± 0.27 ♂♂/trap/night and 1.04 ± 0.21 ♂♂/trap/night and 0.79 ± 0.15 ♂♂/trap/night and 1.24 ± 0.52 ♂♂/trap/night and 0.72 ± 0.13 ♂♂/trap/night
Male CM Captured, Pheromone Alone Trap: ± SEM (male codling moth; Orchard #3): 2.41 ± 0.42 ♂♂/trap/night and 2.98 ± 0.49 ♂♂/trap/night and 2.33 ± 0.41 ♂♂/trap/night and 4.40 ± 0.87 ♂♂/trap/night and 2.60 ± 0.38 ♂♂/trap/night and 3.82 ± 0.42 ♂♂/trap/night
Female Capture: Sum: (codling moth [9]): 0 Moths/Trap/Night
Male Capture: Sum: (codling moth [9]): 94.3 Moths/Trap/Night
Female Capture: Mean ± SEM (codling moth [9]; [15]): 0 Moths/Trap/Night
Male Capture: Mean ± SEM (codling moth [9]; [15]): 4.96 ± 1.04 Moths/Trap/Night
MALE CM Captured: ♂♂/trap/night ± SEM (codling moth [3]): 7.13 ± 1.94 ♂♂/trap/night
Total CM Captured: CM/trap/night ± SEM (codling moth [3]): 7.13 ± 1.94 CM/trap/night

CCCCCCC/C=C/C(=O)OCC [ethyl (2E)-2-decenoate]
attractancy to male and female codling moth (in words) (codling moth [1]): most active

CCCCC/C=C\C=C\C(=O)OCCC [n-Propyl (2E,4Z)-2,4-Decadienoate]
FEMALE CM Captured: ♂♂/trap/night ± SEM (codling moth [3]): 1.12 ± 0.39 ♀♀/trap/night
MALE CM Captured: ♂♂/trap/night ± SEM (codling moth [3]): 0.49 ± 0.14 ♂♂/trap/night
Total CM Captured: CM/trap/night ± SEM (codling moth [3]): 1.61 ± 0.49 CM/trap/night
